Assay results reported in PubChem BioAssay AID2060508 (Molecular Pharmacology Branch, DTP, NCI, 2025).
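Note: spheroids exposed to compounds for seven days; 100% = DMSO vehicle control viability.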

These molecules were tested on 454973-116-R2-J3-PDC spheroids, viability, % test/control (assay: Anticancer human tumor 454973-116-R2-J3-PDC patient-derived pancreatic carcinoma cell line growth inhibition [GQUAD]). Settings: second compound 3.16 µM; first compound 0.1 µM; stronger effect = lower value; spheroids with HUVEC and MSC.
Outline: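 Tumor cells were grown as complex spheroids with HUVEC endothelial cells and mesenchymal stem cells as stroma. G-quadruplex stabilizers were combined with targeted agents over half-log dilutions from near the clinical Cmax, or from 10 microM.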
`COc1ncnc(C2CC2)c1-c1ncc2cnn(Cc3ccc(-c4nc(C(F)(F)F)cn4C(C)C)cc3)c2n1` + Cc1cnc(CNC(=O)c2c(=O)c3ccc(N4CCCN(C)CC4)nc3n3c2sc2ccccc23)cn1 showed a viability, T/C of 58.8%. `O=c1[nH]cc(F)c(=O)[nH]1` + Cc1cnc(CNC(=O)c2c(=O)c3ccc(N4CCCN(C)CC4)nc3n3c2sc2ccccc23)cn1 gave a viability, T/C of 64.4%.

Same assay, conditions: second compound 3.16 µM; first compound 0.316 µM; stronger effect = lower value; spheroids with HUVEC and MSC
Work on `CCCS(=O)(=O)Nc1ccc(F)c(C(=O)c2c[nH]c3ncc(-c4ccc(Cl)cc4)cc23)c1F` + Cc1cnc(CNC(=O)c2c(=O)c3ccc(N4CCCN(C)CC4)nc3n3c2sc2ccccc23)cn1 yielded a viability, T/C of 72.3%. `COc1ncnc(C2CC2)c1-c1ncc2cnn(Cc3ccc(-c4nc(C(F)(F)F)cn4C(C)C)cc3)c2n1` + Cc1cnc(CNC(=O)c2c(=O)c3ccc(N4CCCN(C)CC4)nc3n3c2sc2ccccc23)cn1 showed a viability, T/C of 61.7%. With `O=c1[nH]cc(F)c(=O)[nH]1` + Cc1cnc(CNC(=O)c2c(=O)c3ccc(N4CCCN(C)CC4)nc3n3c2sc2ccccc23)cn1 the viability, T/C was 64.2%.

Same assay, conditions: second compound 3.16 µM; first compound 1 µM; stronger effect = lower value; spheroids with HUVEC and MSC
`CCCS(=O)(=O)Nc1ccc(F)c(C(=O)c2c[nH]c3ncc(-c4ccc(Cl)cc4)cc23)c1F` + Cc1cnc(CNC(=O)c2c(=O)c3ccc(N4CCCN(C)CC4)nc3n3c2sc2ccccc23)cn1 gave a viability, T/C of 67.9%. With `COc1ncnc(C2CC2)c1-c1ncc2cnn(Cc3ccc(-c4nc(C(F)(F)F)cn4C(C)C)cc3)c2n1` + Cc1cnc(CNC(=O)c2c(=O)c3ccc(N4CCCN(C)CC4)nc3n3c2sc2ccccc23)cn1 the viability, T/C was 57.8%. For `O=c1[nH]cc(F)c(=O)[nH]1` + Cc1cnc(CNC(=O)c2c(=O)c3ccc(N4CCCN(C)CC4)nc3n3c2sc2ccccc23)cn1, the viability, T/C was 57.3%.

Same assay, conditions: second compound 3.16 µM; first compound 3.16 µM; stronger effect = lower value; spheroids with HUVEC and MSC
`CCCS(=O)(=O)Nc1ccc(F)c(C(=O)c2c[nH]c3ncc(-c4ccc(Cl)cc4)cc23)c1F` + Cc1cnc(CNC(=O)c2c(=O)c3ccc(N4CCCN(C)CC4)nc3n3c2sc2ccccc23)cn1 gave a viability, T/C of 68.3%. Work on `COc1ncnc(C2CC2)c1-c1ncc2cnn(Cc3ccc(-c4nc(C(F)(F)F)cn4C(C)C)cc3)c2n1` + Cc1cnc(CNC(=O)c2c(=O)c3ccc(N4CCCN(C)CC4)nc3n3c2sc2ccccc23)cn1 yielded a viability, T/C of 67.8%. Work on `O=c1[nH]cc(F)c(=O)[nH]1` + Cc1cnc(CNC(=O)c2c(=O)c3ccc(N4CCCN(C)CC4)nc3n3c2sc2ccccc23)cn1 yielded a viability, T/C of 59.3%.

Same assay, conditions: second compound 3.16 µM; first compound 10 µM; stronger effect = lower value; spheroids with HUVEC and MSC
`CCCS(=O)(=O)Nc1ccc(F)c(C(=O)c2c[nH]c3ncc(-c4ccc(Cl)cc4)cc23)c1F` + Cc1cnc(CNC(=O)c2c(=O)c3ccc(N4CCCN(C)CC4)nc3n3c2sc2ccccc23)cn1 gave a viability, T/C of 29.2%. In the case of `COc1ncnc(C2CC2)c1-c1ncc2cnn(Cc3ccc(-c4nc(C(F)(F)F)cn4C(C)C)cc3)c2n1` + Cc1cnc(CNC(=O)c2c(=O)c3ccc(N4CCCN(C)CC4)nc3n3c2sc2ccccc23)cn1, the viability, T/C is reported as 54%. Work on `O=c1[nH]cc(F)c(=O)[nH]1` + Cc1cnc(CNC(=O)c2c(=O)c3ccc(N4CCCN(C)CC4)nc3n3c2sc2ccccc23)cn1 yielded a viability, T/C of 53.9%.

Same assay, conditions: second compound 10 µM; first compound 0.0316 µM; stronger effect = lower value; spheroids with HUVEC and MSC
For `CCCS(=O)(=O)Nc1ccc(F)c(C(=O)c2c[nH]c3ncc(-c4ccc(Cl)cc4)cc23)c1F` + Cc1cnc(CNC(=O)c2c(=O)c3ccc(N4CCCN(C)CC4)nc3n3c2sc2ccccc23)cn1, the viability, T/C was 0.45%. Work on `COc1ncnc(C2CC2)c1-c1ncc2cnn(Cc3ccc(-c4nc(C(F)(F)F)cn4C(C)C)cc3)c2n1` + Cc1cnc(CNC(=O)c2c(=O)c3ccc(N4CCCN(C)CC4)nc3n3c2sc2ccccc23)cn1 yielded a viability, T/C of 0.22%. `O=c1[nH]cc(F)c(=O)[nH]1` + Cc1cnc(CNC(=O)c2c(=O)c3ccc(N4CCCN(C)CC4)nc3n3c2sc2ccccc23)cn1 showed a viability, T/C of 0.72%.

Same assay, conditions: second compound 10 µM; first compound 0.1 µM; stronger effect = lower value; spheroids with HUVEC and MSC
With `CCCS(=O)(=O)Nc1ccc(F)c(C(=O)c2c[nH]c3ncc(-c4ccc(Cl)cc4)cc23)c1F` + Cc1cnc(CNC(=O)c2c(=O)c3ccc(N4CCCN(C)CC4)nc3n3c2sc2ccccc23)cn1 the viability, T/C was 18.1%. `COc1ncnc(C2CC2)c1-c1ncc2cnn(Cc3ccc(-c4nc(C(F)(F)F)cn4C(C)C)cc3)c2n1` + Cc1cnc(CNC(=O)c2c(=O)c3ccc(N4CCCN(C)CC4)nc3n3c2sc2ccccc23)cn1 showed a viability, T/C of 19.6%. With `O=c1[nH]cc(F)c(=O)[nH]1` + Cc1cnc(CNC(=O)c2c(=O)c3ccc(N4CCCN(C)CC4)nc3n3c2sc2ccccc23)cn1 the viability, T/C was 17.2%.

Same assay, conditions: second compound 10 µM; first compound 0.316 µM; stronger effect = lower value; spheroids with HUVEC and MSC
`CCCS(=O)(=O)Nc1ccc(F)c(C(=O)c2c[nH]c3ncc(-c4ccc(Cl)cc4)cc23)c1F` + Cc1cnc(CNC(=O)c2c(=O)c3ccc(N4CCCN(C)CC4)nc3n3c2sc2ccccc23)cn1 was tested, and the viability, T/C was 28.6%. `COc1ncnc(C2CC2)c1-c1ncc2cnn(Cc3ccc(-c4nc(C(F)(F)F)cn4C(C)C)cc3)c2n1` + Cc1cnc(CNC(=O)c2c(=O)c3ccc(N4CCCN(C)CC4)nc3n3c2sc2ccccc23)cn1 showed a viability, T/C of 50.4%. Molecule `O=c1[nH]cc(F)c(=O)[nH]1` + Cc1cnc(CNC(=O)c2c(=O)c3ccc(N4CCCN(C)CC4)nc3n3c2sc2ccccc23)cn1 has a viability, T/C of 52.7%.

Same assay, conditions: second compound 10 µM; first compound 1 µM; stronger effect = lower value; spheroids with HUVEC and MSC
Work on `CCCS(=O)(=O)Nc1ccc(F)c(C(=O)c2c[nH]c3ncc(-c4ccc(Cl)cc4)cc23)c1F` + Cc1cnc(CNC(=O)c2c(=O)c3ccc(N4CCCN(C)CC4)nc3n3c2sc2ccccc23)cn1 yielded a viability, T/C of 35.6%. `COc1ncnc(C2CC2)c1-c1ncc2cnn(Cc3ccc(-c4nc(C(F)(F)F)cn4C(C)C)cc3)c2n1` + Cc1cnc(CNC(=O)c2c(=O)c3ccc(N4CCCN(C)CC4)nc3n3c2sc2ccccc23)cn1 showed a viability, T/C of 40.6%. `O=c1[nH]cc(F)c(=O)[nH]1` + Cc1cnc(CNC(=O)c2c(=O)c3ccc(N4CCCN(C)CC4)nc3n3c2sc2ccccc23)cn1 gave a viability, T/C of 48%.

Same assay, conditions: second compound 10 µM; first compound 3.16 µM; stronger effect = lower value; spheroids with HUVEC and MSC
`CCCS(=O)(=O)Nc1ccc(F)c(C(=O)c2c[nH]c3ncc(-c4ccc(Cl)cc4)cc23)c1F` + Cc1cnc(CNC(=O)c2c(=O)c3ccc(N4CCCN(C)CC4)nc3n3c2sc2ccccc23)cn1 was tested, and the viability, T/C was 0.54%. For `COc1ncnc(C2CC2)c1-c1ncc2cnn(Cc3ccc(-c4nc(C(F)(F)F)cn4C(C)C)cc3)c2n1` + Cc1cnc(CNC(=O)c2c(=O)c3ccc(N4CCCN(C)CC4)nc3n3c2sc2ccccc23)cn1, the viability, T/C was 0.38%. `O=c1[nH]cc(F)c(=O)[nH]1` + Cc1cnc(CNC(=O)c2c(=O)c3ccc(N4CCCN(C)CC4)nc3n3c2sc2ccccc23)cn1 showed a viability, T/C of 18.3%.

Same assay, conditions: second compound 10 µM; first compound 10 µM; stronger effect = lower value; spheroids with HUVEC and MSC
`CCCS(=O)(=O)Nc1ccc(F)c(C(=O)c2c[nH]c3ncc(-c4ccc(Cl)cc4)cc23)c1F` + Cc1cnc(CNC(=O)c2c(=O)c3ccc(N4CCCN(C)CC4)nc3n3c2sc2ccccc23)cn1 was tested, and the viability, T/C was 0.2%. For `COc1ncnc(C2CC2)c1-c1ncc2cnn(Cc3ccc(-c4nc(C(F)(F)F)cn4C(C)C)cc3)c2n1` + Cc1cnc(CNC(=O)c2c(=O)c3ccc(N4CCCN(C)CC4)nc3n3c2sc2ccccc23)cn1, the viability, T/C was 0.3%. `O=c1[nH]cc(F)c(=O)[nH]1` + Cc1cnc(CNC(=O)c2c(=O)c3ccc(N4CCCN(C)CC4)nc3n3c2sc2ccccc23)cn1 gave a viability, T/C of 0.22%.
